The values below come from patent US10301294B2, “Compounds for the treatment of tuberculosis” (priority 2013, dated 2019).

What all share (format): cell-based
Data set [1] can be described thus: Cytotoxicity against Hek 293. Particulars: human, HEK293 cells, 26.0 uM highest concentration measured.
Data set [2] deals with carbon-starved M. tuberculosis H37Rv. The data set is described as follows: Non-replicating IC90 determination by luciferase (carbon-starved cells). Particulars: Mycobacterium tuberculosis, H37RV; non-replicating carbon-starved Mtb, luciferase; three independent experiments in triplicate; read-out: TB Growth Inhibition Activity, IC90 Non-replicating_luciferase.
Data set [3] has as its system replicating M. tuberculosis H37Rv. The data set is described as follows: microbe, parasite or virus in culture. As to conditions: Mycobacterium tuberculosis, H37RV, three independent experiments in triplicate, read-out: TB Growth Inhibition Activity, IC90 Replicating_logarithmic (converted).
Data set [4] can be described thus: Cytotoxicity against HeLa. As to conditions: human, HeLa cells, 26.0 uM highest concentration measured.
Data set [5] is described as follows: Cytotoxicity against HepG2. Particulars: human, HepG2 cells, 26.0 uM highest concentration measured.

The term IC50 denotes the concentration that gives 50% inhibition. Broadly, the IC90 is the concentration needed for an effect of 90%. Turning to `COc1ccccc1-c1nnc(SCc2ccccc2)o1`, the concentration for half-maximal inhibition (IC50) in data set [1], in data set [4] and in data set [5] was > 26 µM in each case. The 90% effect concentration (IC90) in data set [2] is 125 µM; in data set [3] it was 250 µM.

With `Clc1ccc(-c2nnc(SCc3cn(-c4ccccc4)nn3)o2)cc1` [drawing 164], the concentration for half-maximal inhibition (IC50) in data set [1], in data set [4] and in data set [5] was > 26 µM in each case. In addition, the 90% effect concentration (IC90) in data set [2] is 1 µM; in data set [3] it was > 62 µM.

Consider `FC(F)(F)c1ccccc1-c1nnc(SCc2ccccc2)o1`, for which the IC50 in data set [1], in data set [4] and in data set [5] was > 26 µM in each case. Further, the concentration for an effect of 90% (IC90) was 62 µM in data set [2] and 500 µM in data set [3].

Regarding `O=S(=O)(Cc1ccccc1)c1nnc(-c2ccccc2)o1` [drawing 80], the IC50 in data set [1], in data set [4] and in data set [5] was > 26 µM in each case. The IC90 was 8 µM in data set [2] and 125 µM in data set [3].

Regarding `c1ccc(-c2nnc(SCc3cccnc3)o2)cc1` [drawing 143], the 50% inhibitory concentration (IC50) in data set [1], in data set [4] and in data set [5] was > 26 µM in each case. The IC90 in data set [2] was 8 µM; in data set [3], 125 µM.

With `c1ccc(CSc2nnc(-c3cccnc3)o2)cc1`, the IC50 in data set [1], in data set [4] and in data set [5] was > 26 µM throughout. The 90% effect concentration (IC90) in data set [2] was 2 µM; in data set [3], 125 µM.

With `Fc1ccccc1CSc1nnc(-c2ccccc2)o1`, the IC50 in data set [1], in data set [4] and in data set [5] was > 26 µM throughout. Also, the figures for the IC90 in data set [2] and in data set [3] were 1 µM and 250 µM, respectively.

For `CN(Cc1ccccc1)c1nnc(-c2ccccc2)o1`, the concentration for half-maximal inhibition (IC50) in data set [1], in data set [4] and in data set [5] was > 26 µM in each case. The 90% effect concentration (IC90) is 0.5 µM in data set [2] and 250 µM in data set [3].

For the compound `FC(F)(F)c1cccc(CSc2nnc(-c3ccccc3)o2)c1`, the concentration for half-maximal inhibition (IC50) in data set [1], in data set [4] and in data set [5] was > 26 µM throughout. In addition, the figures for the IC90 in data set [2] and in data set [3] were 4 µM and 250 µM, respectively.

Consider `c1ccc(CSc2nnc(-c3ccccc3)s2)cc1`, for which the IC50 in data set [1], in data set [4] and in data set [5] was > 26 µM in each case. The 90% effect concentration (IC90) is 8 µM in data set [2] and 62 µM in data set [3].

For `CS(=O)(=O)c1cccc(CSc2nnc(-c3ccccc3)o2)c1`, the 50% inhibitory concentration (IC50) in data set [1], in data set [4] and in data set [5] was > 26 µM each time. The IC90 in data set [2] and in data set [3] was 250 µM throughout.

In the case of `Cc1ccccc1CSc1nnc(-c2ccccc2)o1`, the IC50 in data set [1], in data set [4] and in data set [5] was > 26 µM in each case. In addition, the IC90 in data set [2] is 8 µM; in data set [3], 250 µM.

For the compound `c1ccc(CSc2nnc(Cc3ccccc3)o2)cc1`, the half-inhibitory concentration (IC50) in data set [1], in data set [4] and in data set [5] was > 26 µM throughout. Moreover, the IC90 in data set [2] was 4 µM; in data set [3], 500 µM.

Regarding `Fc1ccc(-c2nnc(SCc3ccccc3)o2)cc1`, the IC50 in data set [1], in data set [4] and in data set [5] was > 26 µM throughout. The concentration for an effect of 90% (IC90) is 2 µM in data set [2] and 125 µM in data set [3].

On to `Fc1ccc(Cn2cc(CSc3nnc(C4CCCC4)o3)nn2)cc1`, for which the IC50 in data set [1], in data set [4] and in data set [5] was > 26 µM throughout. Also, the 90% effect concentration (IC90) is 31 µM in data set [2] and > 62 µM in data set [3].

Take `Fc1ccccc1-c1nnc(SCc2ccccc2)o1`: the IC50 in data set [1], in data set [4] and in data set [5] was > 26 µM in each case. In addition, the IC90 in data set [2] was 2 µM; in data set [3], 125 µM.

For `c1ccc(-n2cc(CSc3nnc(C4CCCC4)o3)nn2)cc1`, the IC50 in data set [1], in data set [4] and in data set [5] was > 26 µM each time. Besides, the IC90 is 4 µM in data set [2] and 62 µM in data set [3].

Regarding `FC(F)(F)Oc1ccccc1CSc1nnc(-c2ccccc2)o1`, the half-maximal inhibitory concentration (IC50) in data set [1], in data set [4] and in data set [5] was > 26 µM in each case. Moreover, the results for the IC90 in data set [2] and in data set [3] were 4 µM and 500 µM, respectively.

As to `Clc1ccc(-c2nnc(SCc3cn(Cc4ccccc4)nn3)o2)cc1` [drawing 156], the IC50 in data set [1], in data set [4] and in data set [5] was > 26 µM in each case. The IC90 in data set [2] was 2 µM; in data set [3], > 62 µM.

Take `Fc1ccc(Cn2cc(CSc3nnc(-c4ccc(Cl)cc4)o3)nn2)cc1`: the IC50 in data set [1], in data set [4] and in data set [5] was > 26 µM each time. The values for the IC90 in data set [2] and in data set [3] were 2 µM and > 62 µM, respectively.

`FC(F)(F)Oc1cccc(-c2nnc(SCc3ccccc3)o2)c1`: the IC50 in data set [1], in data set [4] and in data set [5] was > 26 µM each time. Besides, the IC90 in data set [2] was 31 µM; in data set [3], 250 µM.

Consider `c1ccc(CSc2nnc(-c3ccccn3)o2)cc1`, for which the IC50 in data set [1], in data set [4] and in data set [5] was > 26 µM throughout. The figures for the concentration for an effect of 90% (IC90) in data set [2] and in data set [3] were 4 µM and 125 µM, respectively.

`COCCSc1nnc(-c2ccccc2)o1` [drawing 148]: the IC50 in data set [1], in data set [4] and in data set [5] was > 26 µM throughout. The concentration for an effect of 90% (IC90) is 3 µM in data set [2] and 125 µM in data set [3].

With `FC(F)(F)c1ccc(-c2nnc(SCc3ccccc3)o2)cc1`, the concentration for half-maximal inhibition (IC50) in data set [1], in data set [4] and in data set [5] was > 26 µM throughout. In addition, the concentration for an effect of 90% (IC90) in data set [2] is 1 µM.

Take `c1ccc(CSc2nnc(-c3cc4ccccc4o3)o2)cc1`: the half-maximal inhibitory concentration (IC50) in data set [1], in data set [4] and in data set [5] was > 26 µM each time. Also, the IC90 in data set [2] worked out at 2 µM.

Consider `Clc1cccc(-c2nnc(SCc3ccccc3)o2)c1`, for which the IC50 in data set [1], in data set [4] and in data set [5] was > 26 µM each time. Moreover, the concentration for an effect of 90% (IC90) in data set [2] was determined as 8 µM.

With `c1ccc(CSc2nnc(-c3cnco3)o2)cc1`, the IC50 in data set [1], in data set [4] and in data set [5] was > 26 µM each time. In data set [2], the concentration for an effect of 90% (IC90) was determined as 8 µM.

With `CS(=O)(=O)c1ccc(CSc2nnc(-c3ccccc3)o2)cc1`, the IC50 in data set [1], in data set [4] and in data set [5] was > 26 µM each time. The IC90 in data set [2] came out at 31 µM.

With `FC(F)(F)Oc1ccccc1-c1nnc(SCc2ccccc2)o1`, the 50% inhibitory concentration (IC50) in data set [1], in data set [4] and in data set [5] was > 26 µM in each case. Besides, the IC90 in data set [2] worked out at 62 µM.

As for `FC(F)(F)c1ccccc1CSc1nnc(-c2ccccc2)o1`, the IC50 in data set [1], in data set [4] and in data set [5] was > 26 µM each time. In addition, the IC90 in data set [2] is 1 µM.

As for `c1ccc(CNc2nnc(-c3ccccc3)o2)cc1`, the half-maximal inhibitory concentration (IC50) in data set [1], in data set [4] and in data set [5] was > 26 µM throughout. For the same compound, the IC90 in data set [2] stood at 4 µM.

Consider `Cc1ccc(CSc2nnc(-c3ccccc3)o2)cc1`, for which the IC50 in data set [1], in data set [4] and in data set [5] was > 26 µM each time. For the same compound, the IC90 in data set [2] worked out at 1 µM.

In the case of `COc1ccc(CSc2nnc(-c3ccccc3)o2)cc1`, the concentration for half-maximal inhibition (IC50) in data set [1], in data set [4] and in data set [5] was > 26 µM in each case. Also, the concentration for an effect of 90% (IC90) in data set [2] worked out at 0.25 µM.

Take `c1ccc(CSc2nnc(-c3ccncc3)o2)cc1`: the IC50 in data set [1], in data set [4] and in data set [5] was > 26 µM throughout. Besides, the IC90 in data set [2] stood at 31 µM.

As for `Clc1cccc(CSc2nnc(-c3ccccc3)o2)c1`, the concentration for half-maximal inhibition (IC50) in data set [1], in data set [4] and in data set [5] was > 26 µM each time. Also, the IC90 in data set [2] came to 4 µM.

As to `COc1ccccc1CSc1nnc(-c2ccccc2)o1`, the IC50 in data set [1], in data set [4] and in data set [5] was > 26 µM each time. Moreover, the concentration for an effect of 90% (IC90) in data set [2] worked out at 2 µM.

For `Cc1ccccc1-c1nnc(SCc2ccccc2)o1`, the 50% inhibitory concentration (IC50) in data set [1], in data set [4] and in data set [5] was > 26 µM each time. For the same compound, the IC90 in data set [2] came to 16 µM.

Take `CC1(O)CN(CCSc2nnc(-c3ccccc3)o2)C1`: the IC50 in data set [1], in data set [4] and in data set [5] was > 26 µM throughout. For the same compound, the IC90 in data set [2] was found to be 125 µM.

For `N#Cc1cccc(CSc2nnc(-c3ccccc3)o2)c1`, the half-inhibitory concentration (IC50) in data set [1], in data set [4] and in data set [5] was > 26 µM each time. Moreover, the IC90 in data set [2] turned out to be 8 µM.

On to `c1ccc(-c2nnc(SCCN3CCCC3)o2)cc1`, for which the IC50 in data set [1], in data set [4] and in data set [5] was > 26 µM each time. Besides, the IC90 in data set [2] turned out to be 16 µM.

As to `Cc1nnc(SCc2ccccc2)o1`, the 50% inhibitory concentration (IC50) in data set [1], in data set [4] and in data set [5] was > 26 µM each time. Further, the 90% effect concentration (IC90) in data set [2] amounted to 31 µM.

Regarding `O=C(Cc1ccccc1)c1nnc(-c2ccccc2)o1`, the IC50 in data set [1], in data set [4] and in data set [5] was > 26 µM in each case. The IC90 in data set [2] is 16 µM.

Consider `N#Cc1ccc(-c2nnc(SCc3ccccc3)o2)cc1`, for which the IC50 in data set [1], in data set [4] and in data set [5] was > 26 µM in each case. In addition, in data set [2], the concentration for an effect of 90% (IC90) was determined as 8 µM.
